Assay results from patent publication US5334595A, “Pyrazoloquinolones as anticancer agents” (priority 1992, dated 1994).
Like-named read-outs stand apart in the source and are kept apart here.

Legend:
[1] = tested on: P388 murine leukemia cells; experiment: In vitro cytotoxicity, continuous (48-hour) exposure of P388 cells; format: cell-based; conditions: Mus musculus, read-out: in vitro cytotoxicity IC50, cont. exp.
Experimental: In vitro cytotoxicity was assayed by determining cell survival following exposure of P388 murine leukemia cells to a range of test compound concentrations. Cytotoxicity was quantitated following either a one-hour exposure or continuous exposure of P388 cells to test compound.
A Manual of Basic Technique. […] Briefly, following drug exposure cells were plated in soft agar and incubated (37°, 5% CO2) for 7-10 days during which time viable cells form visible colonies. Cytotoxicity following continuous exposure of cells to test compound was assayed by quantitating total P388 cells on a Coultier Counter following a 48-hour co-incubation of test compound with cells. P388 cells were maintained in log phase throughout the duration of cytotoxicity assays.
The percentage of cells surviving relative to an untreated control was graphed as a function of increasing drug concentration.

[2] = In vivo antitumor assay, Colo38(sc); parameters: species or system mice; conditions: mouse, in vivo
From the text: (§1) Mice: Inbred: C3H/He and NCR-nu; and Hybrids: B6D2F1 (C57BL/6 females×DBA/2 males, CD2F1 (Balb/c females×DBS/2 males) and B6C3fl (C57BL/6×C3H) were bred at Wayne State University from strains obtained from the Frederick Cancer Research Facility, Frederick, Maryland or purchased from commercial suppliers.
(§2) Tumors: Murine Tumor: P388 and an adriamycin-resistant (ADR) subline P388/ADR leukemia and the following transplantable solid tumors of mice were used for in vivo testing: B16 melanoma (B16), pancreatic ductal adenocarcinoma No. 03 (Pane 03), colon adenocarcinoma No. 38 (colo 38), lung carcinoma No. 12 (LC 12), mammary ductal adenocarcinoma No. 16/C (Mam16C) and an adriamycin-resistant subline Mam16C/ADR. Human tumor: A single human tumor, mammary carcinoma MX-1 was used for in vivo testing. All tumors are in the Developmental Therapeutics Program frozen tumor respository, maintained by the Biological Testing Branch, Frederick Maryland. Each has a detailed description, code identification number, and list of references at the National Tumor Repository. Murine tumors were maintained in the mouse strain of origin and were transplanted in the appropriate F1 hydrid (or the strain of origin) for therapy trials. Human mammary carcinoma MX-1 (MX1) was maintained as a subcutaneous implant in either athymic Swiss (Cr: NIH(S)-nu) or athymic random bred (NCR-nu) mice and transplanted in NCR-nu for therapy trials.
(§3) Chemotherapy: For pancreatic ductal adenocarcinoma No. 3, colon adenocarcinoma No. 38 (colo 38), lung carcinoma No. 12 LC 12) and both adriamycin-sensitive (RP) and-resistant (ADR) mammary ductal adenocarcinoma No. 16 (Mam16) tumors, bilateral tumor implants were used to help ensure a more uniform tumor burden per mouse (thus reducing the requirement for greater numbers of mice per group). The animals necessary to begin an experiment were pooled, implanted bilaterally s.c. on day zero with 30-60 mg tumor fragments using a 12-gauge trocar, and again pooled before randomization to the various treatment and control groups. Chemotherapy was started within three days after tumor implantation while the number of cells per mouse was relatively small (1×10^7 -1×10^8 cells).
(§4) Quantitative end points used to assess antitumor activity included % Increased Life Span (% ILS), Tumor Cell Kill (Log10 kill), and Tumor Growth Inhibition (T/C). Long Term Survivors (45 or 60 day) were excluded from calculations of %ILS and Tumor Cell Kill.
(§5) Tumors were measured with a caliper once or twice weekly (as needed) until either tumors exceeded 1600 mg or cure was assured. Tumor weights were estimated from two-dimensional measurements: Tumor Weight (mg)=(a×b^2) / 2, where a and b are the tumor length and width (ram) respectively. Measurements were carried out simultaneously in both treatment and control groups. When the control group tumors reached approximately 750-1500 mg in size (median of group), the median tumor weight of each group was determined (including zeros). The T/C value in percent is an indication of antitumor effectiveness. The % T/C was calculated from the following formula for solid murine tumor models: [formula] where T and C are median tumor weights of the treatment and control groups, respectively. […] A T/C value <10% is indicative of a high degree of antitumor activity and is the level used by National Cancer Institute to justify further development if other requirements are met (termed DN-2 level activity). By convention the T/C value for the mammary carcinoma MX-1 models is calculated by the parameter of change in tumor weight .

[3] = tested on: colon adenocarcinoma No. 38 (colo 38); experiment: In vivo antitumor assay, Colo38(sc); parameters: species or system mice
From the text: as §1, §2, §3, §4, §5

[4] = In vivo antitumor assay, P388(ip); parameters: species or system mice; conditions: mouse, in vivo, qd 1,5,9
From the text: as §1, §2
(§6) For P388 and P388/ADR leukemia studies the tumor cells were implanted either interperitoneally (IP) or intravenously (IV) on day zero and treatment was started on day one. For B16 melanoma (B16) studies, the tumor cells were implanted IP on day zero and treatment was started on day one. Titered controls were also included to facilitate the calculation of tumor cell kill. For mammary carcinoma MX-1 studies, tumors were implanted with 1) subcutaneously (sc) (14-mg fragment of sc donor tumor) in the axillary region or 2) under the subrenal capsule (SRC) (10×10×10 ocular micrometer unit fragment of sc donor tumor).
as §4
(§7) Endpoints were calculated as follows: [formula] where Dt is the median day of death for treated and Dc is the median day of death for control groups. A % ILS ≥20 or ≥25 for P388 and B16 intraperitoneal models, respectively, is indicative of a significant degree of antitumor activity. A % ILS ≥75 or ≥50 for P388 and B16 intraperitoneal models, , respectively, is indicative of a high degree of antitumor activity and is the level used by National Cancer Institute to justify further development if other requirements are met (termed DN-2 level activity). Minimum quantitative activity limits for additional P388 models (e.g. P388/ADR and P388, IV) have not been defined.

P388 leukemia = experiment: In vivo antitumor assay, P388(ip); parameters: species or system mice; conditions: qd 1,5,9
From the text: as §1, §2, §6, §4, §7

[5] = P388, continuous exposure (48-hour)
[6] = drug iv,sc: iv, qd 3-9, sc, qd 11-19, exp 1163
[7] = drug iv, qd 3-4, bid 5,6,12-17, exp 1036
[8] = drug iv, sc, iv, qd 3-16, exp 1038

For `Cc1cc(-c2c(F)cc3c4nn(CCCN(C)C)c(=O)c-4cn(C4CC4)c3c2F)cc(C)n1` [Example 14], the IC50 [1, 5] was 380 nM, the MTD ([2]; drug iv, qd 3,12-14, exp 905) was 133 mg/kg and the “Log Kill” value ([3]; drug iv, qd 3,12-14, exp 905) was 0.54. The T/C % ([3]; drug iv, qd 3,12-14, exp 905) was 38%, the MTD ([4]; drug ip) was 42 mg/kg and the MTD ([4]; drug iv) was 64 mg/kg. The ILS % (P388 leukemia; drug ip) was 85%, the “Log Kill” value (P388 leukemia; drug ip) was 6.1 and the ILS % (P388 leukemia; drug iv) was 70%. For the same compound, the “Log Kill” value (P388 leukemia; drug iv) was 5.0.
For `Cc1cc(-c2c(F)cc3c4nn([C@H]5CC[C@H](N(C)C)CC5)c(=O)c-4cn(C4CC4)c3c2F)cc(C)n1` [Example 51b], the MTD ([2]; drug iv, qd 3-4,15,17, bid 5.7, exp 1036, MTD not achieved, maximum dose tested) was > 220 mg/kg, the T/C % ([3]; drug iv, qd 3-4,15,17, bid 5.7, exp 1036) was 13% and the MTD ([4]; drug ip) was 66 mg/kg. For the same compound, the MTD ([4]; drug iv) was 120 mg/kg, the ILS % (P388 leukemia; drug ip) was 85% and the “Log Kill” value (P388 leukemia; drug ip) was 6.2. For the same compound, the ILS % (P388 leukemia; drug iv) was 85% and the “Log Kill” value (P388 leukemia; drug iv) was 6.2.
Compound `Cc1cc(-c2c(F)cc3c4nn(CCNCCO)c(=O)c-4cn(C4CC4)c3c2F)cc(C)n1` [Example 17] has an IC50 [1, 5] of 1200 nM, an MTD ([4]; drug ip) of 180 mg/kg and an MTD ([4]; drug iv) of 120 mg/kg. The ILS % (P388 leukemia; drug ip) was 50%, the “Log Kill” value (P388 leukemia; drug ip) was 3.5 and the ILS % (P388 leukemia; drug iv) was 5%. For the same compound, the “Log Kill” value (P388 leukemia; drug iv) was 0.35.
With `Cc1cc(-c2c(F)cc3c4nn([C@H]5CC[C@@H](N)CC5)c(=O)c-4cn(C4CC4)c3c2F)cc(C)n1` [Example 56a, 2-(Cis-4-Aminocyclohexyl)-5-cyclopropyl-6,8-difluoro-2,5-dihydro-7-(2,6-dimethyl-4-pyridinyl)-3H-pyrazolo-[4,3-c]quinolin-3-one] the MTD [2, 6] was 137 mg/kg and the T/C % [3, 6] was 40%.
Compound `Cc1cc(-c2c(F)cc3c4nn([C@H]5CC[C@@H](N(C)C)CC5)c(=O)c-4cn(C4CC4)c3c2F)cc(C)n1` [Example 51a] has an MTD [2, 7] of 63 mg/kg, a T/C % [3, 7] of 39% and an MTD ([4]; drug ip) of 9.9 mg/kg. The MTD ([4]; drug iv) was 39.9 mg/kg, the ILS % (P388 leukemia; drug ip) was 65% and the “Log Kill” value (P388 leukemia; drug ip) was 4.7. The ILS % (P388 leukemia; drug iv) was 70% and the “Log Kill” value (P388 leukemia; drug iv) was 5.1.
`Cc1cc(-c2c(F)cc3c4nn(CCN(C)C)c(=O)c-4cn(C4CC4)c3c2F)cc(C)n1.O=C(O)/C=C/C(=O)O` [Example 1, 5-Cyclopropyl-6,8-difluoro-2,5-dihydro-2-[2-(dimethylamino)-ethyl]-7-(2,6-dimethyl-4-pyridinyl)-3H-pyrazolo[4,3-c]quinolin-3-one (E)-2-butendioate (1:1)] gave an IC50 ([1]; P388, 48 h) of 40 nM, an MTD ([2]; drug iv, qd 3,7,11, exp 1038) of 78 mg/kg and an MTD [2, 8] of 58 mg/kg. The “Log Kill” value ([3]; drug iv, qd 3,7,11, exp 1038) was 0.60, the T/C % ([3]; drug iv, qd 3,7,11, exp 1038) was 14% and the “Log Kill” value [3, 8] was 1.2. For the same compound, the T/C % [3, 8] was 0%, the MTD ([4]; drug ip) was 78 mg/kg and the MTD ([4]; drug iv) was 117 mg/kg. For the same compound, the ILS % (P388 leukemia; drug ip) was 155%, the “Log Kill” value (P388 leukemia; drug ip) was 11 and the ILS % (P388 leukemia; drug iv) was 170%. For the same compound, the “Log Kill” value (P388 leukemia; drug iv) was 12.
